Tests used:
PAF = experiment: anti-PAF pharmacological effect, solid form vs conventional administration; assay type: in vivo
From the text: (§1) A synthetic anti-PAF, 4,7,8,10-tetrahydro-1-methyl-6-(2-chlorphenyl)-9-(4-methoxyphenylthiocarbamoyl)-pyrido-[4′,3′-4,5] thieno [3,2-f]-1,2,4-triazolo [4,5-a] 1,4-diazepine, and a natural anti-PAF, ginkgolide B, were compared to conventional administration. The synthetic anti-PAF cannot conventionally be used parenterally because of its insolubility.

[1] = assay type: physicochemical
Procedure: (§2) A test was conducted with Insulin Human Recombinant (IHR) and Insulin Bovine Pancreas (IBP). […] IHR and IBP represent about 26 Insulin Units (IU) per mg.
as §1

[2] = pharmacokinetic profiles of injected tablets vs conventional solutions; assay type: in vivo; settings: tablets with gelatin and PVP 5-10%
Procedure: A formulation of a somatostatin analogue, D-Nal-cyclo [Cys-Tyr-D-Trp-Lys-Val-Cys]-Thr-NH2 was made into injectable tablets by associating the dry material with gelatin and polyvinylpyrrolidone (PVP, 5-10%). The tablets were injected and compared to conventional solutions in terms of pharmacokinetic profiles.

[3] = insulin unit content per mg
Procedure: as §2

With `CC1C(=O)OC2C(O)C34C5CC(C(C)(C)C)C36C(OC(=O)C6O)OC4(C(=O)O5)C12O` (centres unmarked) [ginkgolide B] the “effect after initial injection, solid vs solution” value (PAF; same dose, solution pH 8.75) was “the effect was the same after initial injection”, the duration of effect (PAF; solid dry formulation, same dose) was 24 h and the duration of effect (PAF; solution form (pH 8.75), same dose) was 2 h. The water solubility [1] was “slightly soluble”.
In the case of `COc1ccc(NC(=S)N2CCc3c(sc4c3C(c3ccccc3Cl)=NCc3nnc(C)n3-4)C2)cc1` [synthetic anti-PAF, 4,7,8,10-tetrahydro-1-methyl-6-(2-chlorphenyl)-9-(4-methoxyphenylthiocarbamoyl)-pyrido-[4′,3′-4,5] thieno [3,2-f]-1,2,4-triazolo [4,5-a] 1,4-diazepine], the “correlation between pharmacological effect and blood concentration” value (PAF; solid form) is reported as “very good correlation” and the water solubility [1] is reported as “insolubility”.
With “D-Nal-cyclo [Cys-Tyr-D-Trp-Lys-Val-Cys]-Thr-NH2” the “pharmacokinetic profile / pharmacological results, injected tablets vs conventional solutions” value [2] was “substantially the same pharmacological results”.
For Insulin Bovine Pancreas [IBP], the water solubility [1] was “water insoluble” and the “Insulin Units (IU) per mg” value [3] was “about 26 IU per mg”.
With Insulin Human Recombinant [IHR] the water solubility [1] was “water soluble” and the “Insulin Units (IU) per mg” value [3] was “about 26 IU per mg”.

— patent publication US6896893B2, “Needle-less parenteral introduction device” (Societe de Conseils de Recherches et d'Applications …, priority 1994, dated 2005)
